This is an account of results in ChEMBL document CHEMBL3414535, “Identification and optimization of Escherichia coli GlmU inhibitors: an in silico approach with validation thereof” (Eur J Med Chem, 2015).

This test addresses Bifunctional protein GlmU (Escherichia coli (strain K12)) (UniProt P0ACC7). Briefly: Inhibition of Escherichia coli GlmU acetyltransferase activity assessed as coenzyme A production using acetyl CoA substrate at 100 uM.

Bifunctional protein GlmU (Escherichia coli (strain K12)), sequence (P0ACC7 whole entry, looked up): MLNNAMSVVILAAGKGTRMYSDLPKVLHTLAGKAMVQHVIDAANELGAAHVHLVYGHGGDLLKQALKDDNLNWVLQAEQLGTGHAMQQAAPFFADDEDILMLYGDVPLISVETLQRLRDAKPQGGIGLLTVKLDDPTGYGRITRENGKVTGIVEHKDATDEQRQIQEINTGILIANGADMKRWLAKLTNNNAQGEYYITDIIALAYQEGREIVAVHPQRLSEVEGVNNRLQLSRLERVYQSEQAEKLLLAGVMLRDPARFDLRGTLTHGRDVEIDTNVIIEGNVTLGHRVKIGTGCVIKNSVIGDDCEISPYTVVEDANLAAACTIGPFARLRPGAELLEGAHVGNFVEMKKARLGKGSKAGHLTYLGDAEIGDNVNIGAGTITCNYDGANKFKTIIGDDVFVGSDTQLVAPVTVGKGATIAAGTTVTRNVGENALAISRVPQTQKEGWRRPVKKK

For orientation: inhibition means the share of the control response that was lost under treatment. As to `O=S(=O)(c1cc(-c2nnc(C3CCCC3)o2)co1)N1CCc2ccccc2C1`, the inhibition worked out at 32.3%.

On to `COc1ccc(C2SCC(=O)Nc3[nH]nc(C)c32)c(OC)c1OC` (stereo not drawn), for which the inhibition came to 20.5%.

As for `Cc1nn(-c2ccccc2)c(O)c1/C=N/NC(=O)C(O)c1ccccc1` (stereo not drawn), the inhibition is 28.1%.

With `O=C(NCCN1CCCC1)C1=C2CCCN2c2ccc(F)cc2S1(=O)=O`, the inhibition was 25.1%.

`CCOC(=O)COc1ccccc1/C=C1\N=C(SCC)SC1=O`: the inhibition was determined as 45.3%.

Regarding `CCc1ccccc1NS(=O)(=O)c1ccc(-c2ccc(=O)[nH]n2)o1`, the inhibition is 9.82%.

On to `COc1ccc(-c2cnc(C)o2)cc1S(=O)(=O)Nc1cccc(F)c1`, for which the inhibition was 36%.

For `COCCNC(=O)c1ccccc1NS(=O)(=O)c1ccc2c(c1)OCCO2`, the inhibition was determined as 12%.

Take `COC(=O)c1cc(S(=O)(=O)Nc2ccc(C)cc2Cl)c[nH]1`: the inhibition is 5.22%.

For `CC(C)C(=O)N1CCCc2cc(NS(=O)(=O)c3cccc(F)c3)ccc21`, the inhibition turned out to be 82.9%.

Regarding `CN1C(C(=O)NCC2CCCO2)=CC(c2ccco2)=NS1(=O)=O` (stereo not drawn), the inhibition is 28.6%.

Consider `CCOC(=O)c1c(C)[nH]c(C)c1S(=O)(=O)NCC(=O)Nc1cccnc1`, for which the inhibition turned out to be 16.5%.

For `CCCN1C=NS(=O)(=O)c2cc(C(=O)Nc3ccccc3F)ccc21`, the inhibition is 20.1%.

For `CCOc1ccc(OCC)c(Nc2c(-c3ccccc3)c(=O)c2=O)c1`, the inhibition came to 16.8%.

`CCOC(=O)c1c(S(=O)(=O)NCC(=O)Nc2cccnc2)c(C)n(C)c1C`: the inhibition was found to be 16.2%.

For `O=S(=O)(Nc1cc(F)ccc1F)c1c[nH]c2ncccc12`, the inhibition came out at 16.8%.

For the compound `Cc1cc(S(=O)(=O)C(CNC(=O)c2ccco2)c2ccco2)ccc1F` (stereo not drawn), the inhibition came to 12.6%.

Consider `COC(=O)C1CN(C(=O)C(C)Oc2ccccc2F)c2ccccc2O1` (stereo not drawn), for which the inhibition worked out at 25.5%.

For `O=C(Nc1nonc1-c1ccccc1)C1COc2ccccc2O1` (stereo not drawn), the inhibition came out at 17.5%.

Consider `c1cncc(CNc2nnc(-c3nc(C4CC4)no3)c3ccccc23)c1`, for which the inhibition stood at 18.5%.

`CCn1c(C)c(-c2nc(C3CC3)no2)c(S(=O)(=O)NCC2CCCO2)c1C` (stereo not drawn): the inhibition is 21.1%.

As to `O=C(CN1c2ccc(F)cc2-c2ccccc2S1(=O)=O)Nc1cccnc1`, the inhibition worked out at 19.8%.

For `COc1ccc(Cl)cc1N(CC(=O)O)S(=O)(=O)c1ccccc1`, the inhibition is 45.1%.

With `Cc1ccc(S(=O)(=O)n2ccn(C(=O)C(C)Oc3ccccc3)c2=O)cc1` (stereo not drawn), the inhibition was determined as 11.1%.

`CSc1cccc(NS(=O)(=O)c2cc3c(cc2Cl)NC(=O)CO3)c1`: the inhibition worked out at 68.7%.

Take `O=S(=O)(Nc1ccc(F)c(F)c1)c1c[nH]c2ncccc12`: the inhibition is 25.9%.

Take `CCOC(=O)CC1(c2ccccc2)SC(NC(C)=O)=NN1C(C)=O` (stereo not drawn): the inhibition is 9.41%.

On to `COC(=O)c1cc(S(=O)(=O)Nc2cccc(SC)c2)c[nH]1`, for which the inhibition is 5.65%.

Regarding `COc1ccc(-c2cnc(C)o2)cc1S(=O)(=O)Nc1cccc(Cl)c1`, the inhibition amounted to 40.6%.

With `CCOC(=O)c1cc(S(=O)(=O)N(C)CC(=O)Nc2ccc(F)cc2)cn1C`, the inhibition is 11.9%.

As for `O=S(=O)(c1ccccc1)c1nc(-c2ccsc2)oc1NCC1CCCO1` (stereo not drawn), the inhibition came to 13.3%.

In the case of `COc1ccccc1NS(=O)(=O)c1cc(-c2cnc(C3CC3)o2)ccc1C`, the inhibition amounted to 21.1%.

Take `O=C(Nc1nc(S(=O)(=O)Cc2ccccc2)ns1)c1ccccc1`: the inhibition stood at 15.8%.

As to `COc1ccc(S(=O)(=O)C(CNC(=O)c2ccccc2)c2ccco2)cc1` (stereo not drawn), the inhibition was determined as 17.1%.

In the case of `CCOC(=O)c1cc(S(=O)(=O)N2CCCC2C(=O)N2CCCC2)cn1C` (stereo not drawn), the inhibition was 7.99%.

With `CCn1cc(C(=O)NCc2ccco2)c(S(=O)(=O)N2CCSCC2)n1`, the inhibition amounted to 22.1%.

Turning to `COc1ccc(OC)c(N(CC(=O)O)S(=O)(=O)c2ccccc2)c1`, the inhibition stood at 42%.

`CCOc1ccc(OCC)c(NS(=O)(=O)c2ccc3c(c2)N(C)CCO3)c1`: the inhibition came to 29.2%.
